{"source": "patent US20260217701A1", "about": "“SELECTIVE BET INHIBITORS AND USES THEREOF” (Tay Therapeutics Limited, priority 2022, published 2026)", "assay": "Dog PK study #4 (Compound A PO daily 14 days, 1/3/10 mg/kg; toxicokinetics, platelet counts)", "assay_type": "in vivo, beagle dogs", "details": "for Mean Platelet Count: Day 15 following 14 days of administration; for concentration at 0.5 h / concentration at 1 h / concentration at 2 h / concentration at 4 h / concentration at 8 h / concentration at 24 h: beagle, dog, plasma, oral, after daily administration for 14 days", "protocol": "The different doses of compound A were orally administered to animals (n=2/group, one male and one female animal) daily for 14 days.\nBlood samples were collected at 0.5, 1, 2, 4, 8, and 24 hours after administration of Compound A on Day 14, and EDTA-K2 was used as an anticoagulant. Within 30 minutes of collection, the samples were centrifuged at approximately 2000×g for 10 minutes at 4° C. to obtain blood plasma. The samples were immediately divided into aliquots, transferred to cryogenic vials, and stored in a freezer at −75+15° C. prior to analysis.\nThe concentration of Compound A in the blood plasma was determined through liquid chromatography-mass spectrometry (LC-MS). The experiments were conducted on a Shimadzu UPLC and AB API 6500+LC/MS/MS with a Water […] UPLC HSS T3 1.8 μm (50×2.1 mm) column. A gradient of 0.1% formic acid in water/0.1% formic acid in acetonitrile was used as the mobile phase. The sample injection volume was 1 μL. The flow rate was 0.6 mL/min.\nThe desired serial concentrations of working solutions were achieved by diluting 30 μL of sample (control standard, QC standard, test samples) with 30 μL of a 50% acetonitrile in water solution (for double blanks) or 30 μL of the IS mixture (Compound B 80 ng/ml in 50% acetonitrile). 240 μL of 100% acetonitrile was then added and samples were vortexed for 5 min and centrifuged at 3200×g at 4° C. for 10 min. 100 μL of the supernatant was transferred and then diluted with 50% acetonitrile. Samples were then vortexed for about 5 min before injection into the LC/MS/MS system for quantitative analysis.", "key": {"[1]": {"details": "both sexes, 1 mg/kg, Pooled Mean"}, "[2]": {"details": "both sexes, 3 mg/kg, Pooled Mean"}, "[3]": {"details": "both sexes, 10 mg/kg, Pooled Mean"}}}
{"smiles": "Cn1cc(-c2ccccc2)c(-c2cn(C)c(=O)c3[nH]c(-c4cnn(C(F)(F)F)c4)cc23)cc1=O", "note": "[Compound A, 6-methyl-4-(1-methyl-2-oxo-5-phenyl-1,2-dihydropyridin-4-yl)-2-(1-(trifluoromethyl)-1H-pyrazol-4-yl)-1,6-dihydro-7H-pyrrolo[2,3-c]pyridin-7-one]", "values": [{"measurement": "exposure difference between male and female animals", "setting": "Day 14", "result": "no exposure differences"}, {"measurement": "plasma concentration relative to BD2 BRD4 and BD1 BRD4 free EC50", "setting": "Day 14, 1, 3 and 10 mg/kg, all time points over 24 hours", "result": "remained well above the BD2 BRD4 EC50"}, {"measurement": "time of peak (or plateau) plasma concentration", "setting": "Day 14, all animals", "result": "approximately 2 hours"}, {"measurement": "platelet counts relative to vehicle", "setting": "Day 15, after 14 days of 1, 3 or 10 mg/kg", "result": "no appreciable difference in platelet counts"}, {"measurement": "Mean Platelet Count", "setting": "1 mg/kg", "result": 260750, "unit": "µL⁻¹"}, {"measurement": "Mean Platelet Count", "setting": "3 mg/kg", "result": 241000, "unit": "µL⁻¹"}, {"measurement": "Mean Platelet Count", "setting": "10 mg/kg", "result": 293000, "unit": "µL⁻¹"}, {"measurement": "concentration at 0.5 h", "setting": "1 mg/kg, Female", "result": 27.8, "unit": "ng/mL"}, {"measurement": "concentration at 1 h", "setting": "1 mg/kg, Female", "result": 57.9, "unit": "ng/mL"}, {"measurement": "concentration at 2 h", "setting": "1 mg/kg, Female", "result": 70.1, "unit": "ng/mL"}, {"measurement": "concentration at 4 h", "setting": "1 mg/kg, Female", "result": 55.9, "unit": "ng/mL"}, {"measurement": "concentration at 8 h", "setting": "1 mg/kg, Female", "result": 25.7, "unit": "ng/mL"}, {"measurement": "concentration at 24 h", "setting": "1 mg/kg, Female", "result": 10.3, "unit": "ng/mL"}, {"measurement": "concentration at 0.5 h", "setting": "1 mg/kg, Male", "result": 31.6, "unit": "ng/mL"}, {"measurement": "concentration at 1 h", "setting": "1 mg/kg, Male", "result": 56.7, "unit": "ng/mL"}, {"measurement": "concentration at 2 h", "setting": "1 mg/kg, Male", "result": 60.8, "unit": "ng/mL"}, {"measurement": "concentration at 4 h", "setting": "1 mg/kg, Male", "result": 44.8, "unit": "ng/mL"}, {"measurement": "concentration at 8 h", "setting": "1 mg/kg, Male", "result": 24.5, "unit": "ng/mL"}, {"measurement": "concentration at 24 h", "setting": "1 mg/kg, Male", "result": 25.1, "unit": "ng/mL"}, {"measurement": "concentration at 0.5 h", "setting": "3 mg/kg, Female", "result": 152, "unit": "ng/mL"}, {"measurement": "concentration at 1 h", "setting": "3 mg/kg, Female", "result": 324, "unit": "ng/mL"}, {"measurement": "concentration at 2 h", "setting": "3 mg/kg, Female", "result": 320, "unit": "ng/mL"}, {"measurement": "concentration at 4 h", "setting": "3 mg/kg, Female", "result": 230, "unit": "ng/mL"}, {"measurement": "concentration at 8 h", "setting": "3 mg/kg, Female", "result": 87.5, "unit": "ng/mL"}, {"measurement": "concentration at 24 h", "setting": "3 mg/kg, Female", "result": 14.2, "unit": "ng/mL"}, {"measurement": "concentration at 0.5 h", "setting": "3 mg/kg, Male", "result": 98.3, "unit": "ng/mL"}, {"measurement": "concentration at 1 h", "setting": "3 mg/kg, Male", "result": 201, "unit": "ng/mL"}, {"measurement": "concentration at 2 h", "setting": "3 mg/kg, Male", "result": 265, "unit": "ng/mL"}, {"measurement": "concentration at 4 h", "setting": "3 mg/kg, Male", "result": 245, "unit": "ng/mL"}, {"measurement": "concentration at 8 h", "setting": "3 mg/kg, Male", "result": 165, "unit": "ng/mL"}, {"measurement": "concentration at 24 h", "setting": "3 mg/kg, Male", "result": 33, "unit": "ng/mL"}, {"measurement": "concentration at 0.5 h", "setting": "10 mg/kg, Female", "result": 1130, "unit": "ng/mL"}, {"measurement": "concentration at 1 h", "setting": "10 mg/kg, Female", "result": 1630, "unit": "ng/mL"}, {"measurement": "concentration at 2 h", "setting": "10 mg/kg, Female", "result": 1680, "unit": "ng/mL"}, {"measurement": "concentration at 4 h", "setting": "10 mg/kg, Female", "result": 1070, "unit": "ng/mL"}, {"measurement": "concentration at 8 h", "setting": "10 mg/kg, Female", "result": 342, "unit": "ng/mL"}, {"measurement": "concentration at 24 h", "setting": "10 mg/kg, Female", "result": 61.6, "unit": "ng/mL"}, {"measurement": "concentration at 0.5 h", "setting": "10 mg/kg, Male", "result": 1010, "unit": "ng/mL"}, {"measurement": "concentration at 1 h", "setting": "10 mg/kg, Male", "result": 1450, "unit": "ng/mL"}, {"measurement": "concentration at 2 h", "setting": "10 mg/kg, Male", "result": 1490, "unit": "ng/mL"}, {"measurement": "concentration at 4 h", "setting": "10 mg/kg, Male", "result": 1350, "unit": "ng/mL"}, {"measurement": "concentration at 8 h", "setting": "10 mg/kg, Male", "result": 646, "unit": "ng/mL"}, {"measurement": "concentration at 24 h", "setting": "10 mg/kg, Male", "result": 145, "unit": "ng/mL"}, {"measurement": "concentration at 0.5 h", "setting": "[1]", "result": 29.7, "unit": "ng/mL"}, {"measurement": "concentration at 1 h", "setting": "[1]", "result": 57.3, "unit": "ng/mL"}, {"measurement": "concentration at 2 h", "setting": "[1]", "result": 65.5, "unit": "ng/mL"}, {"measurement": "concentration at 4 h", "setting": "[1]", "result": 50.4, "unit": "ng/mL"}, {"measurement": "concentration at 8 h", "setting": "[1]", "result": 25.1, "unit": "ng/mL"}, {"measurement": "concentration at 24 h", "setting": "[1]", "result": 17.7, "unit": "ng/mL"}, {"measurement": "concentration at 0.5 h", "setting": "[2]", "result": 125, "unit": "ng/mL"}, {"measurement": "concentration at 1 h", "setting": "[2]", "result": 262, "unit": "ng/mL"}, {"measurement": "concentration at 2 h", "setting": "[2]", "result": 292, "unit": "ng/mL"}, {"measurement": "concentration at 4 h", "setting": "[2]", "result": 238, "unit": "ng/mL"}, {"measurement": "concentration at 8 h", "setting": "[2]", "result": 126, "unit": "ng/mL"}, {"measurement": "concentration at 24 h", "setting": "[2]", "result": 23.6, "unit": "ng/mL"}, {"measurement": "concentration at 0.5 h", "setting": "[3]", "result": 1070, "unit": "ng/mL"}, {"measurement": "concentration at 1 h", "setting": "[3]", "result": 1540, "unit": "ng/mL"}, {"measurement": "concentration at 2 h", "setting": "[3]", "result": 1580, "unit": "ng/mL"}, {"measurement": "concentration at 4 h", "setting": "[3]", "result": 1210, "unit": "ng/mL"}, {"measurement": "concentration at 8 h", "setting": "[3]", "result": 494, "unit": "ng/mL"}, {"measurement": "concentration at 24 h", "setting": "[3]", "result": 103, "unit": "ng/mL"}]}
